These results are taken from publication PMC7349657, “Efficient Targeted Degradation via Reversible and Irreversible Covalent PROTACs” (Journal of the American Chemical Society, 2020).

The subject of this assay is Ramos cells. Kind of assay: Label-free quantitative proteomics in Ramos cells. In kind it is cell-based, Homo sapiens. Conditions: 24 h; for Difference for 50 nM, C11orf98 / Difference for 100 nM, C11orf98: protein C11orf98 (E9PRG8); for Difference for 50 nM, MED19 / Difference for 100 nM, MED19: protein MED19 (A0JLT2); for Difference for 50 nM, MIF4GD / Difference for 100 nM, MIF4GD: protein MIF4GD (A9UHW6); for Difference for 50 nM, MAP1LC3B;MAP1LC3B2;MAP1LC3A / Difference for 100 nM, MAP1LC3B;MAP1LC3B2;MAP1LC3A: proteins MAP1LC3B;MAP1LC3B2;MAP1LC3A. How it is done: To assess their proteomic selectivity, we incubated the PROTACs at 50 or 100 nM for 24 h with Ramos cells and followed the change in protein abundance via quantitative label-free proteomics (Figure 7, Supporting Figure 6). In agreement with the Western blot analysis, BTK was efficiently degraded by all the PROTACs we tested. […] Ramos cells were incubated with each PROTAC (50 nM) or DMSO in quadruplicates for 24 h and were then subjected to label-free quantitative proteomics analysis. Each graph plots the Log2 fold-change of proteins in the treated samples compared to the DMSO controls (x-axis) vs the −log(p-value) of that comparison in a Student’s t test (y-axis). […]
supplemented with 300 mM imidazole). The His tag was cleaved by the addition of TEV protease with concomitant dialysis overnight into cleavage buffer (50 mM Tris, pH 8.0, 0.5 mM EDTA, 1 mM DTT) at 4°C. The resulting soluble protein was passed ov er Ni -NTA beads to remove the protease and purified further by gel filtration on a HiLoad_16/60_Superdex_75 (GE Healthcare) column equilibrated with 20 mM Tris, pH 8.0, 50 mM NaCl, 1 mM DTT. The pure protein was then flash-frozen in liquid nitrogen and stored at −80°C.
C57BL/6 mice were purchased from Harlan (Rehovot, Israel) and maintained in a pathogen-free facility, experiments were carried on 8-12 weeks old male mice. All exp eriments with mice were approved by the Weizmann Institute Animal Care and Use Committee.
Splenic cells from C57BL/6 mice were isolated by forcing spleen tissue through mesh into PBS containing 2% fetal calf serum and 1 mM EDTA and red blood cells were depleted by lysis buffer. Cells were cultured in 96-well U-b ottom dishes (1x10^6 cells/m L in RPMI 10% […]
nM, 10 nM, 1 nM, 0.1 nM) for 24 hours at 37° C in 5% humidified CO2 incubator. Following a 24 hours incubation, cells were stimulated with anti-IgM overnight (5 µg/mL, Sigma-Aldrich). Subsequently, cells were stained with anti-B220 (clone RA3-6B2, Biolegend) and anti-CD86 (clone GL-1, Biolegend) antibodies for 30 minutes at 4°C. Single cell suspensions were analyzed by a flow cytometer (CytoFlex, Beckman Coulter).
Cells were analyzed by intensity based, label-free mass spectrometry based proteomics.
Sample preparation: 106 Ramos cells were treated in four replicates with either compound or DMSO for 24 hours. Cells were then washed twice by centrifuge at 200 rcf, 4°C for 5 minutes, removing the supernatant and washed with ice cold PBS. Samp les were then centrifuged at 200 rcf, 4°C for 5 minutes, then supernatant was removed and samples were frozen at -80°C.
Samples were dispersed in 75 µl of 50 mM ammonium bicarbonate, and transferred to 1.8 mL glass vials. 75 µl of 10% SDS in 50 mM ammonium bicarbonate were added and the samples were heated to 96° C for 6 minutes. The samples were sonicated thoroughly in a sonication bath until the DNA was sheared as indicated by reduction in viscosity to level enabling easy pipettation. Total protein concentration was estimated using BCA as say and 30 µg from each sample was taken for the experiment. […]
to 60°C for 45 minutes. The samples were cooled to room temperature, and 1/20 volume of […]
200 mM iodoacetamide was added and the reaction was performed in the dark for 30 minutes.
At this point, 1/10 volume of 12% phosphoric acid was added, followed by 6 volume […]
of 90% methanol in 50 mM ammonium bicarbonate. The samples were loaded on S-trap Micro […]
columns (Protify), and washed 3 times with 90% methanol in 50 mM ammonium bicarbonate.
The columns were spun without washing to dry the methanol. Then, 1 µg of trypsin (Promga) […]
in 20 µl of 50 mM ammonium bicarbonate was added to each column, and they were incubated […]
at 47° C for 1. 5 hours. Then, 40 µl of 50 mM ammonium bicarbonate was added and the sample […]
was eluted and another 0. 5 µg of trypsin was added, fo llowed by overnight incubation at 37 ° C.
The columns themselves were further eluted with 40 µl 0.2% formic acid in water, followed […]

Setting [1] is: 50 nM, Log2 fold-change vs DMSO.
Where [2] appears, read: 100 nM, Log2 fold-change vs DMSO.

In the case of `Nc1ncnc2c1c(-c1ccc(Oc3ccccc3)cc1)nn2C1CCCN(C(=O)C=CCOCCOCCOCCOCCOCCOc2cccc3c2C(=O)N(C2CCC(=O)NC2=O)C3=O)C1` (stereo not shown) [IR-1], for the setting “50 or 100 nM”, the “effect on off-targets LCK and PLK1” value is “not significantly affected”; the “off-targets degraded (CSK, LYN, BLK)” value was “degraded the known ibrutinib off-targets CSK, LYN, and BLK”. For the same molecule, under setting [1], the “Difference for 50 nM, C11orf98” value was -0.4718; the “Difference for 50 nM, MED19” value stood at 0.1815; the “Difference for 50 nM, MIF4GD” value is -0.2478; the “Difference for 50 nM, MAP1LC3B;MAP1LC3B2;MAP1LC3A” value is recorded as 0.1478. Also, under setting [2], the “Difference for 100 nM, C11orf98” value turned out to be 0.1735; the “Difference for 100 nM, MED19” value is given as -0.5554; the “Difference for 100 nM, MIF4GD” value is listed as -0.02661; the “Difference for 100 nM, MAP1LC3B;MAP1LC3B2;MAP1LC3A” value stood at 0.3122. Besides, under “proteins RGPD3;RGPD4, 50 nM, Log2 fold-change vs DMSO”, the “Difference for 50 nM, RGPD3;RGPD4” value came out at 0.0493. For the same molecule, where the note is “proteins RGPD3;RGPD4, 100 nM, Log2 fold-change vs DMSO”, the “Difference for 100 nM, RGPD3;RGPD4” value is 0.2554.

`Nc1ncnc2c1c(-c1ccc(Oc3ccccc3)cc1)nn2C1CCCN(C(=O)C=CCCCCOCCOCCOCCOCCOc2cccc3c2C(=O)N(C2CCC(=O)NC2=O)C3=O)C1` (stereo not shown) [IR-2]: where the note is “50 or 100 nM”, the “effect on off-targets LCK and PLK1” value is “not significantly affected”; the “off-targets degraded (CSK, LYN, BLK)” value is “degraded the known ibrutinib off-targets CSK, LYN, and BLK”. Moreover, under setting [1], the “Difference for 50 nM, C11orf98” value is on record as -0.1649; the “Difference for 50 nM, MED19” value is reported as -0.004671; the “Difference for 50 nM, MAP1LC3B;MAP1LC3B2;MAP1LC3A” value was -0.3401. Under setting [2], the “Difference for 100 nM, C11orf98” value was -0.1913; the “Difference for 100 nM, MED19” value is 0.772; the “Difference for 100 nM, MAP1LC3B;MAP1LC3B2;MAP1LC3A” value is recorded as -0.09776. Moreover, under “protein POM121C, 50 nM, Log2 fold-change vs DMSO”, the “Difference for 50 nM, POM121C” value is 0.7405. In addition, the “Difference for 100 nM, POM121C” value (protein POM121C, 100 nM, Log2 fold-change vs DMSO) turned out to be 0.8148. In addition, for the setting “proteins RASA4;RASA4B, 50 nM, Log2 fold-change vs DMSO”, the “Difference for 50 nM, RASA4;RASA4B” value is 0.1914. In addition, the “Difference for 100 nM, RASA4;RASA4B” value (proteins RASA4;RASA4B, 100 nM, Log2 fold-change vs DMSO) is recorded as -0.07223.

As to `Nc1ncnc2c1c(-c1ccc(Oc3ccccc3)cc1)nn2C1CCCN(C(=O)CCCCCCOCCOCCOCCOCCOc2cccc3c2C(=O)N(C2CCC(=O)NC2=O)C3=O)C1` (stereo not shown) [NC-1], for the setting “50 or 100 nM”, the “BTK degradation (proteomics)” value was “highest degradation potency against BTK”; the “effect on off-targets LCK and PLK1” value was “not significantly affected”; the “off-targets degraded (CSK, LYN, BLK)” value is “degraded the known ibrutinib off-targets CSK, LYN, and BLK”. Besides, under setting [1], the “Difference for 50 nM, MIF4GD” value is 0.1494 and the “Difference for 50 nM, MAP1LC3B;MAP1LC3B2;MAP1LC3A” value is on record as -0.1034. In addition, under setting [2], the “Difference for 100 nM, MIF4GD” value worked out at 0.1711 and the “Difference for 100 nM, MAP1LC3B;MAP1LC3B2;MAP1LC3A” value was found to be 0.1967. Besides, where the note is “protein NUDT19 (A8MXV4), 50 nM, Log2 fold-change vs DMSO”, the “Difference for 50 nM, NUDT19” value is 0.09117. Under “protein NUDT19 (A8MXV4), 100 nM, Log2 fold-change vs DMSO”, the “Difference for 100 nM, NUDT19” value worked out at 0.676. Besides, the “Difference for 50 nM, ZC3H12D” value (protein ZC3H12D (A2A288), 50 nM, Log2 fold-change vs DMSO) was -0.03901. Besides, the “Difference for 100 nM, ZC3H12D” value (protein ZC3H12D (A2A288), 100 nM, Log2 fold-change vs DMSO) is given as -0.07076. Moreover, the “Difference for 50 nM, SNRPG;SNRPGP15” value (proteins SNRPG;SNRPGP15, 50 nM, Log2 fold-change vs DMSO) was -0.1263. The “Difference for 100 nM, SNRPG;SNRPGP15” value (proteins SNRPG;SNRPGP15, 100 nM, Log2 fold-change vs DMSO) was 0.0004592.

For the molecule `N#CC(=CCCCCOCCOCCOCCOCCOc1cccc2c1C(=O)N(C1CCC(=O)NC1=O)C2=O)C(=O)N1CCCC(n2nc(-c3ccc(Oc4ccccc4)cc3)c3c(N)ncnc32)C1` (stereo not shown) [RC-2], under “50 or 100 nM”, the “effect on off-targets LCK and PLK1” value was “not significantly affected”; the “off-targets degraded (CSK, LYN, BLK)” value is “degraded the known ibrutinib off-targets CSK, LYN, and BLK”. Under setting [1], the “Difference for 50 nM, C11orf98” value is -0.2599 and the “Difference for 50 nM, MAP1LC3B;MAP1LC3B2;MAP1LC3A” value was -0.1598. Besides, under setting [2], the “Difference for 100 nM, C11orf98” value amounted to 0.08889 and the “Difference for 100 nM, MAP1LC3B;MAP1LC3B2;MAP1LC3A” value is listed as 0.1213. In addition, under “protein ESYT2 (A0FGR8), 50 nM, Log2 fold-change vs DMSO”, the “Difference for 50 nM, ESYT2” value is recorded as 0.001137. In addition, the “Difference for 100 nM, ESYT2” value (protein ESYT2 (A0FGR8), 100 nM, Log2 fold-change vs DMSO) is given as -0.137. The “Difference for 50 nM, HAX1” value (protein HAX1 (O00165), 50 nM, Log2 fold-change vs DMSO) was -0.1673. Besides, the “Difference for 100 nM, HAX1” value (protein HAX1 (O00165), 100 nM, Log2 fold-change vs DMSO) is on record as 0.4145. The “Difference for 50 nM, UNC119B” value (protein UNC119B (A6NIH7), 50 nM, Log2 fold-change vs DMSO) is given as -0.2229. Where the note is “protein UNC119B (A6NIH7), 100 nM, Log2 fold-change vs DMSO”, the “Difference for 100 nM, UNC119B” value is listed as -0.06661.

For the molecule `CC(C)(C=C(C#N)C(=O)N1CCCC(n2nc(-c3ccc(Oc4ccccc4)cc3)c3c(N)ncnc32)C1)CCCOCCOCCOCCOCCOc1cccc2c1C(=O)N(C1CCC(=O)NC1=O)C2=O` (stereo not shown) [RC-3], where the note is “50 or 100 nM”, the “activity against noncovalent off-targets CSK and LYN” value is reported as “no activity”; the “off-targets degraded (CSK, LYN, BLK)” value is recorded as “the only significant off-target of RC-3 was BLK”. Under setting [1], the “Difference for 50 nM, MED19” value is reported as 0.1151 and the “Difference for 50 nM, MAP1LC3B;MAP1LC3B2;MAP1LC3A” value is on record as -0.1457. Under setting [2], the “Difference for 100 nM, MED19” value came to 0.03137 and the “Difference for 100 nM, MAP1LC3B;MAP1LC3B2;MAP1LC3A” value was found to be 0.000999. Further, the “Difference for 50 nM, SAC3D1” value (protein SAC3D1 (A6NKF1), 50 nM, Log2 fold-change vs DMSO) is on record as -1.386. Also, the “Difference for 100 nM, SAC3D1” value (protein SAC3D1 (A6NKF1), 100 nM, Log2 fold-change vs DMSO) was -0.4129. The “Difference for 50 nM, TRAPPC13” value (protein TRAPPC13 (A5PLN9), 50 nM, Log2 fold-change vs DMSO) is -0.1201. Moreover, the “Difference for 100 nM, TRAPPC13” value (protein TRAPPC13 (A5PLN9), 100 nM, Log2 fold-change vs DMSO) was -0.2022. Besides, the “Difference for 50 nM, GPR89B;GPR89A” value (proteins GPR89B;GPR89A, 50 nM, Log2 fold-change vs DMSO) is -0.3119. Further, for the setting “proteins GPR89B;GPR89A, 100 nM, Log2 fold-change vs DMSO”, the “Difference for 100 nM, GPR89B;GPR89A” value is given as -0.8716.
